The values below are quoted from earlier work in patent publication US20190054079A1, “ENHANCEMENT OF IMPAIRED MOTOR AND MENTAL FUNCTIONS, USING DEXTROMETHORPHAN AND OXIDASE ENZYME INHIBITOR” (Avanir Pharmaceuticals, Inc., priority 2004, published 2019).

Series [1] relates to patients suffering from neurological disorders (such as ALS). To be noted: DM alone, late 1980's and early 1990's.
For a further series, the target named is P450-2D6 enzyme (Homo sapiens, UniProt P10635). Conditions: among known drugs in Inaba et al 1985 and 1986.
Chain of P450-2D6 enzyme (P10635 whole entry): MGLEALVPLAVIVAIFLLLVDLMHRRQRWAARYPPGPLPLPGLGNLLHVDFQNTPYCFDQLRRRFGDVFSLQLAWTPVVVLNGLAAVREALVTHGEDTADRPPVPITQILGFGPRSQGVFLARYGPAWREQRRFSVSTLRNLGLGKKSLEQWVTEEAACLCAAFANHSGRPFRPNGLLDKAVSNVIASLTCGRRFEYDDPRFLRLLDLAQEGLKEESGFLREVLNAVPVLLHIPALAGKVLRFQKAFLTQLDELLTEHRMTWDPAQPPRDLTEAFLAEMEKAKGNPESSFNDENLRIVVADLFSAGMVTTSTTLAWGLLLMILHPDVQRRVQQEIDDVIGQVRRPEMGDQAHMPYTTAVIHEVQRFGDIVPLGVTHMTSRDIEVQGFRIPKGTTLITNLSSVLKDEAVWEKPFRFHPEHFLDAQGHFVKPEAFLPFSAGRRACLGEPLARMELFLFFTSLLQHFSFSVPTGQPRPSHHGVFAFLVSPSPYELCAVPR

As to `COc1ccc2c(c1)[C@@]13CCCC[C@H]1[C@@H](C2)N(C)CC3` [Dextromethorphan, (+)-3-methoxy-N-methylmorphinan], in the series on sigma receptors, the “activity at sigma receptors” value was “stimulates activity”. Moreover, the “activity at NMDA receptors” value in the series on NMDA receptors is recorded as “mildly suppresses activity”. Further, in series [1], the “benefit in slowing progression of neurological diseases” value is given as “did not show enough benefits”.

As to `C=C[C@H]1C[N@@]2CC[C@H]1C[C@@H]2[C@@H](O)c1ccnc2ccc(OC)cc12` [quinidine], the “potency of P450-2D6 inhibition” value at P450-2D6 enzyme is “most potent P450-2D6 inhibitor”.
